Where two headings read alike, the source gives them in different places.
Experiments:
Xenopus laevis VDR = target: T1, Xenopus laevis VDR (Xenopus laevis, UniProt O13124); assay: luciferase reporter transactivation assay in HepG2-NTCP cells, GAL4/xlVDR LBD chimera with tk-UAS-Luc; type: cell-based
T1 sequence (O13124 90-422): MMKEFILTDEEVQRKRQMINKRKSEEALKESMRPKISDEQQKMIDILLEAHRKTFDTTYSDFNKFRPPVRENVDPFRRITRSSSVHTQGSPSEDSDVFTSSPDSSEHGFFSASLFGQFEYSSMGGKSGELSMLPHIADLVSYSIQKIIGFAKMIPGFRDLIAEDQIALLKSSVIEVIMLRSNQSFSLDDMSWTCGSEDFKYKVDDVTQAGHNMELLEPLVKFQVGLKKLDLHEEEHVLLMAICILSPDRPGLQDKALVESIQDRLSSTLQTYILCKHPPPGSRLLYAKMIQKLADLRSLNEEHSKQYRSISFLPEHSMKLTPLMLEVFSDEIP

Zebrafish VDR = target: T2, Zebrafish VDR (Danio rerio, UniProt Q9PTN2); assay: luciferase reporter transactivation assay in HepG2-NTCP cells, GAL4/zfVDR LBD chimera with tk-UAS-Luc; type: cell-based
T2 sequence (Q9PTN2 121-453): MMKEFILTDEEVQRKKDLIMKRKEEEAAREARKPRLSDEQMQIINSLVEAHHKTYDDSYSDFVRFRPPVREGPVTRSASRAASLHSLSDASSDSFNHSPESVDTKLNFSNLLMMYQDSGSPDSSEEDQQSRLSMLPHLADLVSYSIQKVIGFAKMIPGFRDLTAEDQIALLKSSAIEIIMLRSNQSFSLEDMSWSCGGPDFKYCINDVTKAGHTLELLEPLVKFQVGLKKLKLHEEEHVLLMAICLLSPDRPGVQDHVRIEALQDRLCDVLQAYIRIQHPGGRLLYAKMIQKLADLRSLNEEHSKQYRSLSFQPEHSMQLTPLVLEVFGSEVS

Sea lamprey VDR = target: T3, Sea lamprey VDR (Petromyzon marinus, UniProt Q7ZZY9); type: cell-based
T3 sequence (Q7ZZY9 92-406): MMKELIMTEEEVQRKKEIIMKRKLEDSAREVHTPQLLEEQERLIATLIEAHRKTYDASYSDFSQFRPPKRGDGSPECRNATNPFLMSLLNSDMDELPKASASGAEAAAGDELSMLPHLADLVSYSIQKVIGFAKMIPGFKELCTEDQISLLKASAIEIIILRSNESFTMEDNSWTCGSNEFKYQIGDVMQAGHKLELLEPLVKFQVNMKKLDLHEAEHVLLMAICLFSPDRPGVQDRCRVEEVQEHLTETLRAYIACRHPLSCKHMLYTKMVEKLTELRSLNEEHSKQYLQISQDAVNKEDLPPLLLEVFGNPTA

[1] = tested on: ethoxyresorufin O-deethylase (EROD) activity (CYP1A-like activity); assay: in vitro
Description: (§1) The cells are cultured at 26°C in ambient atmosphere.

[2] = tested on: testosterone 6β-hydroxylation activity (CYP3A-like activity); assay: in vitro; settings: zebrafish
Description: as §1
(§2) 100 μL of sample, calibration standard, or quality material standard were pipetted into separate microcentrifuge tubes and mixed with 100 μL of methanol. Samples were vortexed and centrifuged at 13,000 rpm for 4 min. The supernatant was then injected into the HPLC.
(§3) The flow rate was 1.2 mL/min and total run time was 25 min.

zebrafish PXR [3] = tested on: zebrafish PXR
[4] = tested on: testosterone 6β-hydroxylation; assay: testosterone hydroxylation (HPLC) in sea lamprey primary hepatocytes; type: cell-based; settings: concentration ranges per compound
Description: as §2, §3

[5] = tested on: flurbiprofen 4-hydroxylation activity (CYP2C-like activity)
EROD activity = assay: EROD assay in sea lamprey primary hepatocytes; settings: 24–48 hr exposure
β-actin = assay: zebrafish in vivo liver transcription, semi-quantitative RT-PCR: β-actin
Description: (§4) Adult zebrafish were purchased from a commercial fish supplier and acclimatized for at least two-weeks in 20 L tanks with flow-through freshwater at 22°C. A single dose of 15 mg/kg of 5α-cyprinol, 5β-cyprinol 27-sulfate, 5α-scymnol or 5β-scymnol-27 sulfate, dissolved in saline, was injected intraperitoneally. A control group was injected with saline. After 48 hr, the animals were decapitated and livers of three fish (n = 5 each group) were removed, pooled and weighed, totalizing 15 fish per group. Fish were not fed throughout the experimental period. […].
(§5) To study the transcription of CYP3C1, ABCB5, PXR, GAPDH and β-actin genes in zebrafish, initial fragments of these genes were identified (Genbank: AW202769, Genbank: BQ284593, Genbank: AAM22215, Genbank: BC083506, Genbank: AF057040, respectively). The PCR primers for CYP3C1 were designed using MacVector Software and primers for MDR1 were designed using Primer 3 Software (Whitehead Institute for Biomedical Research; [75]). Primer pairs for amplifying CYP3C1 fragment were 5'-[…]-3' (sense) and 5'-[…]-3' (antisense) and for amplifying ABCB5 were 5'-[…]-3' (sense) and 5'-[…]-3' (antisense). The PCR primers for PXR were 5'-[…]-3' (sense) and 5'-[…]-3' (antisense), for amplifying GAPDH were 5'-[…]-3' (sense) and 5' […] 3' (antisense) and for β-actin were 5'-[…]-3' (sense) and 5'-[…]-3' (antisense). RNA was isolated using Trizol (Invitrogen) according to manufacturer's instructions. Purity and concentration of RNA of each sample were verified at 260 nm. The RNA integrity was checked by non-denaturing gel electrophoresis using 1 μg of total RNA in each sample.
(§6) Two micrograms of total RNA were reversed transcribed using Ominiscript RT Kit (Qiagen, Valencia, CA, USA). cDNA concentration was checked at 260 nm, and the amount adjusted to 1 μg to perform semi-quantitative RT-PCR. The expected size of the PXR, Cyp3C1, abcb5, GAPDH and β-actin fragments were 577, 477, 218, 234 and 550 bp, respectively. Biotools DNA polymerase (Biotools B&M Labs, S.A., Madrid, Spain) kit was used for the PCR reaction using a thermocycler Personal Mastercycler (Eppendörf) with the following PCR program: 5 cycles of 94°C for 5 s, 72°C for 35 s; 5 cycles of 94°C for 5 s, 70°C for 10 s, 72°C for 35 s; and 23, 24, 35, 15 and 24 cycles (PXR, Cyp3C1, abcb5, GAPDH and β-actin, respectively) of 94°C for 5 s, 61, 54, 48, 49 and 61°C for 10 s (PXR, Cyp3C1, abcb5, GAPDH and β-actin, respectively), and 72°C for 35 s. The PXR, CYP3C1, ABCB5 and GAPDH transcript levels were quantified using Gel-Quant™ (Multiplexed Biotechologies) and β-actin was used to normalize the data. The Shapiro-Wilk W test was used to evaluate normality. When data were parametric the analysis was performed using Student t test; otherwise Mann Whitney U test was applied. […]

[6] = tested on: glyceraldehyde 3-phosphate dehydrogenase (GAPDH); assay: zebrafish in vivo liver transcription, semi-quantitative RT-PCR: GAPDH; settings: 15 mg/kg intraperitoneally, single dose, 48 hr
Description: Adult zebrafish were purchased from a commercial fish supplier and acclimatized for at least two-weeks in 20 L tanks with flow-through freshwater at 22°C. A single dose of 15 mg/kg of 5α-cyprinol, 5β-cyprinol 27-sulfate, 5α-scymnol or 5β-scymnol-27 sulfate, dissolved in saline, was injected intraperitoneally. A control group was injected with saline. After 48 hr, the animals were decapitated and livers of three fish (n = 5 each group) were removed, pooled and weighed, totalizing 15 fish per group. Fish were not fed throughout the experimental period.
as §5, with “The PCR primers for CYP3C1 were designed using MacVector Software and primers for MDR1 were designed using Primer 3 Software (Whitehead Institute for Biomedical Research; [75]).” left out, “Purity and concentration of RNA of each sample were verified at 260 nm.” left out
The PXR, CYP3C1, ABCB5 and GAPDH transcript levels were quantified using Gel-Quant™ (Multiplexed Biotechologies) and β-actin was used to normalize the data. The Shapiro-Wilk W test was used to evaluate normality. When data were parametric the analysis was performed using Student t test; otherwise Mann Whitney U test was applied.

[7] = tested on: MDR1 (tentatively classified as ABCB5 in zebrafish); assay: zebrafish in vivo liver transcription, semi-quantitative RT-PCR: MDR1
Description: as §4, §5, §6

PXR = assay: zebrafish in vivo liver transcription, semi-quantitative RT-PCR: PXR
Description: as §4, §5, §6

CYP3C1 = assay: zebrafish in vivo liver transcription, semi-quantitative RT-PCR: CYP3C1
Description: as §4, §5, §6

zebrafish PXR [8] = settings: cited from earlier work
[9] = screening for activators, at least three concentrations of each drug
[10] = zebrafish, 15 mg/kg intraperitoneally, single dose, 48 hr

CCC1(c2ccccc2)C(=O)NC(=O)NC1=O [Phenobarbital]
Effect on Xenopus laevis VDR (Xenopus laevis VDR): No effect
Effect on zebrafish VDR (Zebrafish VDR): No effect
Effect on sea lamprey VDR (Sea lamprey VDR): No effect
effect on EROD activity [1]: found not to affect EROD activity
EC50 [2]: 928 ± 109 µM
activation of recombinant zebrafish PXR (zebrafish PXR [3]): all activate recombinant zebrafish PXR
effect on testosterone 6β-hydroxylation [4]: None of these compounds produced significant increases in testosterone 6β-hydroxylation
maximal flurbiprofen 4-hydroxylation activities [5]: greater than 50 nmol/min/mg protein
effect on EROD activity (EROD activity): did not alter EROD activity

CC(CCC(O)C(CO)COS(=O)(=O)O)C1CCC2C3C(O)CC4CC(O)CCC4(C)C3CC(O)C12C (stereo not drawn) [5β-scymnol 27-sulfate]
Effect on Xenopus laevis VDR (Xenopus laevis VDR; [9]): No effect
Effect on zebrafish VDR (Zebrafish VDR; [9]): No effect
Effect on sea lamprey VDR (Sea lamprey VDR; [9]): No effect
liver transcription of β-actin (β-actin; [10]): 39.3 ± 17.5 arbitrary units
liver transcription of GAPDH [6]: 1.08 ± 0.50 arbitrary units normalized to β-actin
liver transcription of MDR1 (ABCB5) [7, 10]: 1.50 ± 0.58 arbitrary units normalized to β-actin
liver transcription of PXR (PXR; [10]): 0.75 ± 0.33 arbitrary units normalized to β-actin
liver transcription of CYP3C1 (CYP3C1; [10]): 1.33 ± 0.58 arbitrary units normalized to β-actin
activity at recombinant zebrafish PXR (zebrafish PXR [8]; ref [29],[53]): weaker activator of recombinant zebrafish PXR

C[C@H](CCC(O)C(CO)CO)[C@H]1CC[C@H]2[C@@H]3[C@H](O)C[C@@H]4C[C@H](O)CC[C@]4(C)[C@H]3C[C@H](O)[C@]12C (stereo partly drawn) [5β-scymnol, 5β-cholestan-3α,7α,12α,24,26,27-hexol]
Effect on Xenopus laevis VDR (Xenopus laevis VDR; [9]): No effect
Effect on zebrafish VDR (Zebrafish VDR; [9]): No effect
Effect on sea lamprey VDR (Sea lamprey VDR; [9]): No effect
liver transcription of β-actin (β-actin; ip, 15 mg/kg, 48 h): 62.2 ± 21.8 arbitrary units
liver transcription of GAPDH [6]: 1.17 ± 0.58 arbitrary units normalized to β-actin
liver transcription of MDR1 (ABCB5) ([7]; ip, 15 mg/kg, 48 h): 1.08 ± 0.17 arbitrary units normalized to β-actin
liver transcription of PXR (PXR; ip, 15 mg/kg, 48 h): 0.92 ± 0.38 arbitrary units normalized to β-actin
liver transcription of CYP3C1 (CYP3C1; ip, 15 mg/kg, 48 h): 1.17 ± 0.50 arbitrary units normalized to β-actin
activity at recombinant zebrafish PXR (zebrafish PXR [8]): both inactive at recombinant zebrafish PXR
